Results published in publication doi:10.1101/737510v1 (biorxiv, 2019).

How the values were obtained:
Assay type in all cases: binding
[1] = target: DCAF15-DDB1(ΔBPB)-DDA1 and RBM39(Δ150) mixture (Homo sapiens, UniProt Q14498+Q66K64); test: isothermal titration calorimetry
[2] = target: DCAF15-DDB1-DDA1 with RBM39(Δ150) (Homo sapiens, UniProt Q14498+Q66K64); test: TR-FRET ternary complex recruitment assay
DCAF15-DDB1(ΔBPB)-DDA1 = DCAF15-DDB1(ΔBPB)-DDA1 (Homo sapiens, UniProt Q66K64); test: isothermal titration calorimetry
RBM39(Δ150) = target: T1, RBM39(Δ150) (Homo sapiens, UniProt Q14498); test: isothermal titration calorimetry
T1 sequence (Q14498 151-530): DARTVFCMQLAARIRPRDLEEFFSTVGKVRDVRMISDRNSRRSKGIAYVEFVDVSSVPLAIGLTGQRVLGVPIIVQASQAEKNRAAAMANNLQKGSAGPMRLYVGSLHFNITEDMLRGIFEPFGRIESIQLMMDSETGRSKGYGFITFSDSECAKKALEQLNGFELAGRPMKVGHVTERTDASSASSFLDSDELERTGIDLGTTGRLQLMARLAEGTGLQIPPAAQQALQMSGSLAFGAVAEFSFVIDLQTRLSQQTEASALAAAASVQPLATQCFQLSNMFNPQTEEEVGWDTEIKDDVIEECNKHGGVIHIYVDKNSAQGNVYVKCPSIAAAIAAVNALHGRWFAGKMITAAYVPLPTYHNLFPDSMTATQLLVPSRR

EC50 [2] | other results | SMILES
3.4 µM | Kd [1]: 0.187 µM; Kd (DCAF15-DDB1(ΔBPB)-DDA1): ~17 µM; Kd (RBM39(Δ150)): > 50 µM | NS(=O)(=O)c1ccc(S(=O)(=O)Nc2cccc3c(Cl)c[nH]c23)cc1 [Indisulam]
14.3 µM | – | Cc1c[nH]c2c(NS(=O)(=O)c3ccc(S(N)(=O)=O)cc3)cccc12 [compound 1, N-(3-methyl-1H-indol-7-yl)benzene-1,4-disulfonamide]
1.21 µM | – | N#Cc1c[nH]c2c(NS(=O)(=O)c3ccc(S(N)(=O)=O)cc3)cccc12 [compound 2, N-(3-cyano-1H-indol-7-yl)benzene-1,4-disulfonamide]
> 50 µM | – | NS(=O)(=O)c1ccc(S(=O)(=O)Nc2cccc3cc[nH]c23)cc1 [compound 3, N-(1H-indol-7-yl)benzene-1,4-disulfonamide]
12.3 µM | – | Cc1c[nH]c2c(NS(=O)(=O)c3ccc(S(=O)(=O)N(C)C)cc3)cccc12 [compound 4, N^1,N^1-dimethyl-N^4-(3-methyl-1H-indol-7-yl)benzene-1,4-disulfonamide]
38.1 µM | – | O=S(=O)(Nc1cccc2c(Cl)c[nH]c12)c1ccccc1 [compound 5, N-(3-chloro-1H-indol-7-yl)benzenesulfonamide]
3.82 µM | – | Cc1ccc(NS(=O)(=O)c2ccc(N)cc2)c2[nH]cc(C#N)c12 [compound 6, Compound 6]
2.38 µM | – | Cc1ccc(NS(=O)(=O)c2ccc(CN)cc2)c2[nH]cc(C#N)c12 [compound 7, 4-(aminomethyl)-N-(3-cyano-4-methyl-1H-indol-7-yl)benzenesulfonamide]
